Results as given in ChEMBL document CHEMBL3714742, “Pyrimido (4,5-b) indole derivatives” (2003).
The source made the active and inactive calls. No rule for the calls is given here.

Tests used:
[1] = molecular target: T1, Dual specificity mitogen-activated protein kinase kinase 7 (Homo sapiens, UniProt O14733); assay: Inhibition of GST-tagged human MKK7 expressed in Escherichia coli (BL21(DE3) pLysS) co-expressing human MEKK catalytic domain using biotinylated and GST-tagged rat GST-KN-SAPKalpha substrate incubated for 1 hr by time-resolved fluorescence based assay
T1 sequence (O14733 whole entry): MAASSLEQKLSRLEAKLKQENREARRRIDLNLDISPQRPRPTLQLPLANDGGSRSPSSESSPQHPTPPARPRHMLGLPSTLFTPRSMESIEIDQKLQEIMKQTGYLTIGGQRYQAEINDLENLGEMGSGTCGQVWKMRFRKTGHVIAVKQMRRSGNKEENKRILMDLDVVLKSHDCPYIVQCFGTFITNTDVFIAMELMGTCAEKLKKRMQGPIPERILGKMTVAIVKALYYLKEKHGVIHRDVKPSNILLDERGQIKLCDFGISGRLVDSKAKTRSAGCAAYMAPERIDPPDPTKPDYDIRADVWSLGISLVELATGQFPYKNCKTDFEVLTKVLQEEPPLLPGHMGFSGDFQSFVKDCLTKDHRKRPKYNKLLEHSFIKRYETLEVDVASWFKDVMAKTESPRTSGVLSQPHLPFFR

[2] = test system: Mus musculus; assay: Inhibition of anti-CD3 antibody-induced IL2 production in Balb/c mouse dosed intravenously 5 mins before anti-CD3 antibody injection and measured 2 hrs post-challenge by ELISA; type: functional, organism-based
[3] = test system: Mus musculus; assay: Inhibition of anti-CD3 antibody-induced IL4 production in Balb/c mouse dosed intravenously 5 mins before anti-CD3 antibody injection and measured 2 hrs post-challenge by ELISA; type: functional, organism-based
[4] = test system: Mus musculus; assay: Inhibition of anti-CD3 antibody-induced IFNgamma production in Balb/c mouse dosed intravenously 5 mins before anti-CD3 antibody injection and measured 2 hrs post-challenge by ELISA; type: functional, organism-based

| SMILES | IC50 [1] | inhibition [2] | inhibition [3] | inhibition [4] |
| --- | --- | --- | --- | --- |
| Oc1ccc2[nH]c3ncnc(NCCc4c[nH]cn4)c3c2c1 | < 1 µM | Active | Active | Active |
| COC(=O)c1ccc2[nH]c3nc(C)nc(N4CCCCC4)c3c2c1 | < 1 µM | Active | Active | Active |
| OCCN(CCO)c1ncnc2[nH]c3ccc(O)cc3c12 | < 1 µM | Active | Active | Active |
| CC(C)N(C)c1nc(N)nc2[nH]c3ccc(O)cc3c12 | < 1 µM | Active | Active | Active |
| Nc1nc(N2CCCCC2)c2c(n1)[nH]c1ccc(C(=O)O)cc12 | < 1 µM | Active | Active | Active |
| Cc1nc(N2CCCCC2CO)c2c(n1)[nH]c1ccc(O)cc12 (centres undefined) | 1 µM | Active | Active | Active |
| CCCN(CCC)c1ncnc2[nH]c3ccc(C(N)=O)cc3c12 | < 1 µM | Active | Active | Active |
| Cc1nc(N2CCC(O)CC2)c2c(n1)[nH]c1ccc(O)cc12 | < 1 µM | Active | Active | Active |
| NCc1ccc2[nH]c3nc(N)nc(N4CCCCC4)c3c2c1 | 1 µM | Active | Active | Active |
| Nc1nc(N2CCNCC2)c2c(n1)[nH]c1ccc(O)cc12 | 1 µM | Active | Active | Active |
| CCN(CCO)c1ncnc2[nH]c3ccc(O)cc3c12 | < 1 µM | Active | Active | Active |
| O=C(O)CCCCCN1CCN(c2ncnc3[nH]c4ccc(O)cc4c23)CC1 | 1 µM | Active | Active | Active |
| OCCCCN1CCN(c2ncnc3[nH]c4ccc(O)cc4c23)CC1 | < 1 µM | Active | Active | Active |
| Nc1nc(N2CCC(C(=O)O)CC2)c2c(n1)[nH]c1ccc(O)cc12 | 1 µM | Active | Active | Active |
| Nc1nc(N2CCOCC2)c2c(n1)[nH]c1ccc(O)cc12 | < 1 µM | Active | Active | Active |
| NC(=O)c1ccc2[nH]c3ncnc(N(CCO)Cc4ccccc4)c3c2c1 | < 1 µM | Active | Active | Active |
| Nc1nc(N2CCCC2)c2c(n1)[nH]c1ccc(O)cc12 | < 1 µM | Active | Active | Active |
| COc1ccc2[nH]c3nc(N)nc(N4CCOCC4)c3c2c1 | < 1 µM | Active | Active | Active |
| Cc1nc(N2CCOCC2)c2c(n1)[nH]c1ccc(O)cc12 | 1 µM | Active | Active | Active |
| Nc1nc(NCCN2CCCC2)c2c(n1)[nH]c1ccc(O)cc12 | > 10 µM | Active | Active | Active |
| C[C@H](CO)Nc1ncnc2[nH]c3ccc(O)cc3c12 | < 1 µM | Active | Active | Active |
| Nc1nc(N2CCC(Cc3ccccc3)CC2)c2c(n1)[nH]c1ccc(O)cc12 | 1 µM | Active | Active | Active |
| Nc1nc(N2CCCCC2)c2c(n1)[nH]c1ccc(O)cc12 | < 1 µM | Active | Active | Active |
| CC(C)N(C)c1ncnc2[nH]c3ccc(O)cc3c12 | < 1 µM | Active | Active | Active |

Continued, in another order:

| IC50 [1] | SMILES | inhibition [2] | inhibition [3] | inhibition [4] |
| --- | --- | --- | --- | --- |
| < 1 µM | NC(=O)c1ccc2[nH]c3ncnc(N4CCC(CCO)CC4)c3c2c1 | Active | Active | Active |
| < 1 µM | NC(=O)c1ccc2[nH]c3ncnc(N4CCCCCC4)c3c2c1 | Active | Active | Active |
| < 1 µM | Oc1ccc2[nH]c3ncnc(N4CCC(O)CC4)c3c2c1 | Active | Active | Active |
| < 1 µM | NC(=O)c1ccc2[nH]c3ncnc(NC4CCCC4)c3c2c1 | Active | Active | Active |
| < 1 µM | Oc1ccc2[nH]c3ncnc(N4CCCC4)c3c2c1 | Active | Active | Active |
| < 1 µM | Oc1ccc2[nH]c3ncnc(N4CCOCC4)c3c2c1 | Active | Active | Active |
| < 1 µM | NC(=O)c1ccc2[nH]c3ncnc(N4CCC(O)CC4)c3c2c1 | Active | Active | Active |
| < 1 µM | CCC1CCCCN1c1ncnc2[nH]c3ccc(C(N)=O)cc3c12 (centres undefined) | Active | Active | Active |
| < 1 µM | Oc1ccc2[nH]c3ncnc(N4CCNCC4)c3c2c1 | Active | Active | Active |
| < 1 µM | O=C1CCN(c2ncnc3[nH]c4ccc(O)cc4c23)CC1 | Active | Active | Active |
| < 1 µM | NC(=O)C1CCCN(c2ncnc3[nH]c4ccc(O)cc4c23)C1 (centres undefined) | Active | Active | Active |
| < 1 µM | CC1CCN(c2ncnc3[nH]c4ccc(C(N)=O)cc4c23)CC1 | Active | Active | Active |
| < 1 µM | NC1CCN(c2ncnc3[nH]c4ccc(O)cc4c23)CC1 | Active | Active | Active |
| < 1 µM | CC1CCN(c2ncnc3[nH]c4ccc(O)cc4c23)CC1 | Active | Active | Active |
| < 1 µM | Oc1ccc2[nH]c3ncnc(N4CCC[C@@H](O)C4)c3c2c1 | Active | Active | Active |
| < 1 µM | CC(C)(C)OC(=O)NC1CCCN(c2ncnc3[nH]c4ccc(C(N)=O)cc4c23)C1 (centres undefined) | Active | Active | Active |
| < 1 µM | CNC1CCN(c2ncnc3[nH]c4ccc(C(N)=O)cc4c23)C1 (centres undefined) | Active | Active | Active |
